According to the supplement of paper PMC10290057:
Structures can show the parent of a compound that is named as a salt.

Columns and labels:
[1] = system: HCT116; experiment: efficacy (fitted maximal change in viability relative to DMSO control); higher = less cytotoxic (negative = loss of viability); conditions: 48 h
[2] = system: HCT116; experiment: AC50 cell viability (CellTiter-Glo); higher = less potent; conditions: 48 h
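Wherever AC50 cell viability (CellTiter-Glo) is given: HCT116 colorectal carcinoma cells screened at five concentrations per compound, luminescent viability scaled between DMSO wells and empty wells on each plate, curves fitted per compound.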
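Wherever efficacy (fitted maximal change in viability relative to DMSO control) is given: Luminescence-based viability readout, five doses per compound, normalized against on-plate DMSO and empty-well controls, followed by dose-response curve fitting for every drug.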

Row | Structure (SMILES) | efficacy [1] [%] | AC50 cell viability [2] [µM]
1 | CCOc1cc2ncc(C#N)c(Nc3ccc(F)c(Cl)c3)c2cc1NC(=O)/C=C/CN(C)C [Pelitinib] | -97.7 | 5.9
2 | c1cc(-c2cnn3cc(-c4ccc(N5CCNCC5)cc4)cnc23)c2cccnc2c1 | -81.9 | 6.61
3 | O=C(Nc1ccc(OC(F)(F)F)cc1)c1sccc1NCc1ccnc2ccccc12 [OSI-930] | -77.4 | 10.5
4 | CCN(CC)CCOc1ccc(/C(=C(\Cl)c2ccccc2)c2ccccc2)cc1 [Clomifene citrate] | -90.7 | 8.33
5 | CC[S+](=O)([O-])Nc1ccc2c(c1)/C(=C(/Nc1ccc(CN3CCCCC3)cc1)c1ccccc1)C(=O)N2 [Hesperadin] | -90.4 | 0.235
6 | CC(C)[C@H](CO)Nc1nc(Nc2cccc(Cl)c2)c2ncn(C(C)C)c2n1 [Purvalanol A] | -110 | 13.2
7 | Cc1nc(N)sc1-c1ccnc(Nc2ccc(N3CCOCC3)cc2)n1 [CYC-116] | -61 | 2.09
8 | N=C(N)NC(=N)NCCc1ccccc1 [Phenformin hydrochloride] | -38.6 | 13.2
9 | C=CC(=O)Nc1cccc(Oc2nc(Nc3ccc(N4CCN(C)CC4)cc3)ncc2Cl)c1 [WZ-3146] | -101 | 4.17
10 | C=C1/C(=C\C=C2/CCC[C@]3(C)[C@@H]([C@H](C)/C=C/[C@H](C)C(C)C)CC[C@@H]23)C[C@@H](O)C[C@@H]1O [Doxercalciferol] | -85.4 | 23.5
11 | CN(C)[S+](=O)([O-])c1ccc2c(c1)C(=Cc1cc3c([nH]1)CCCC3)C(=O)N2 [SU-6656] | -34.2 | 0.118
12 | CCC[S+](=O)([O-])c1nc(NC2CC2)cc(-c2ccc3c(ccn3C3CC(C)(C)NC(C)(C)C3)c2)n1 [NVS-CECR2-1] | -93.7 | 2.78
13 | CCC[S+]([O-])c1ccc2[nH]c(NC(=O)OC)nc2c1 (stereo unspecified) [Albendazole oxide] | -45.3 | 13.2
14 | COc1cc(C(=O)NC2CCN(C)CC2)c(F)cc1Nc1ncc2c(n1)N(C1CCCC1)CC(F)(F)C(=O)N2C [TAK-960] | -120 | 1.32
15 | CC/1=C/C(=O)N(O)/C(=C1)C2CCCCC2 [Ciclopirox] | -89.1 | 3.72
16 | Cc1c(C(=O)Nc2cccc(C(F)(F)F)c2)cc(-c2ccccc2)n1CCCN1CCOCC1 | -75.8 | 20.9
17 | Cc1ccc([S+](=O)([O-])N[C@@H](Cc2ccccc2)C(=O)CCl)cc1 [TPCK] | -77.8 | 18.6
18 | CC1=C(C)C\2=C(S1)[N]3C(=NN=C3C(CC(=O)NC4=CC=C(O)C=C4)\N=C2C5=CC=C(Cl)C=C5)C (stereo unspecified) [Birabresib] | -80.8 | 0.833
19 | Nc1ncnc2c1c(-c1cnc3[nH]ccc3c1)nn2C1CCCC1 [PP-121] | -86.5 | 2.63
20 | c1cn2cc(-c3ccc4cn[nH]c4c3)nc(Nc3ccc(N4CCOCC4)cc3)c2n1 [Entospletinib] | -34.9 | 5.9

Row | Structure (SMILES) | efficacy [1] [%] | AC50 cell viability [2] [µM]
21 | COCCNCc1ccc(-c2cc3nccc(Oc4ccc(NC(=S)NC(=O)Cc5ccc(F)cc5)cc4F)c3s2)nc1 [Glesatinib] | -80.1 | 6.61
22 | c1ccc(Cn2c(-c3ccc(OCC(C4CCNCC4)n4c(-c5ccccc5)nc5ccccc54)cc3)nc3ccccc32)cc1 (stereo unspecified) [Deltarasin] | -89.7 | 9.34
23 | CCN1C(=O)\C(=C/C2=C1N=C(NC3=CC=C(N4CCNCC4)C(=C3)F)N=C2)C5=CC=C(Cl)C=C5Cl [FRAX-486] | -32.6 | 2.63
24 | CC1(C)CCC2(CC1)N[C@@H](C(=O)N[C@@H]1CC[C@@H](C(N)=O)OC1)[C@H](c1ccnc(Cl)c1F)[C@]21C(=O)Nc2cc(Cl)ccc21 [Milademetan] | -129 | 4.02
25 | Cc1c[nH]c2nc(Nc3ccc(N4CCN(C)CC4)c(F)c3)nc(-c3cccc(CC#N)c3)c12 [SGI-7079] | -83.9 | 0.525
26 | Fc1ccc(-c2nc(-c3ccccc3F)[nH]c2-c2ccncc2)cc1 [TA02] | -48.4 | 16.6
27 | COc1cc2c(NC3CCN(CC4CCCCC4)CC3)nc(N3CCCN(C(C)C)CC3)nc2cc1OCCCN1CCCCC1 [UNC-0631] | -106 | 7.42
28 | COc1cc(N2CCC(N3CCN(C)CC3)CC2)ccc1Nc1ncc(Cl)c(Nc2ccccc2P(C)(C)=O)n1 [Brigatinib] | -75.3 | 0.525
29 | C[S+](=O)([O-])c1cccc(CNc2nc(Nc3ccc4c(c3)CCC(=O)N4)ncc2C(F)(F)F)c1 | -71.5 | 5.9
30 | NCCCN([C@H](CC#C)C/1=N/C2=C(C=CC(=C2)Cl)C(=O)N1NC3=CC=CC=C3)C(=O)C4=CC=CC(=C4F)Cl [ARQ-621] | -102 | 0.468
31 | C[C@@H]1COCCN1c1cc(-c2ccnn2C)c2ccnc(-c3ccn[nH]3)c2n1 | -70.3 | 0.525
32 | COCCNCCc1cccc(Nc2ncc3c(n2)-c2ccccc2[C@H](c2ccccc2F)C3)c1 [Derazantinib] | -95.8 | 10.5
33 | COc1cc(Nc2ncc(F)c(Nc3ccc4c(n3)NC(=O)C(C)(C)O4)n2)cc(OC)c1OC [R-406] | -30.6 | 3.72
34 | Cn1cc(-c2ccncc2)c(-c2ccc(OCc3ccc4ccccc4n3)cc2)n1 [MP-10] | -72.4 | 18.6
35 | COc1cc(N2CCN(C)CC2)ccc1Nc1nccc(-c2cn(C)c3cnccc23)n1 [AZ-191] | -88.4 | 18.6
36 | COCCOc1nc(-c2ccc(Cl)c(Cl)c2)n(-c2ccc(NC(=O)CCl)cc2)n1 [MI-2] | -63.7 | 18.6
37 | CCC[S+](=O)([O-])Nc1ccc(F)c(C(=O)c2c[nH]c3ncc(Cl)cc23)c1F [PLX-4720] | -38.4 | 16.6
38 | CC1(N)CCN(c2cccnc2NC(=O)c2nc(-c3ncccc3C(F)(F)F)cnc2N)CC1 [LXS-196] | -70.1 | 16.6
39 | CCC1=C[C@@H]2CN(C1)Cc1c([nH]c3ccccc13)[C@@](C(=O)OC)(c1cc3c(cc1OC)N(C)[C@H]1[C@@](O)(C(=O)OC)[C@H](OC(C)=O)[C@]4(CC)C=CCN5CC[C@]31[C@@H]54)C2 [Vinorelbine (ditartrate)] | -60.3 | 0.129
40 | N/C(=N\C(=O)c1nc(Cl)c(N)nc1N)NCc1ccccc1 [Benzamil] | -81 | 20.9

Row | Structure (SMILES) | efficacy [1] [%] | AC50 cell viability [2] [µM]
41 | COc1cc2c(cc1O)CCN[C@]21CS[C@@H]2c3c(OC(C)=O)c(C)c4c(c3[C@H](COC1=O)N1[C@@H]2[C@H]2c3c(cc(C)c(OC)c3O)C[C@@H]([C@@H]1O)N2C)OCO4 [Trabectedin] | -69.8 | 0.0121
42 | O=C(c1ccc(/C=C/c2n[nH]c3ccccc23)cc1)N1CCNCC1 [KW-2449] | -96.6 | 8.33
43 | CC1=N[NH]C=C1C2=CC\3=C(S2)C(=O)NC(=N3)\[C@@H]4CC5CCN4CC5 [TAK-931] | -65.2 | 2.63
44 | N#Cc1c(NC(=O)c2cccc3ccccc23)sc2c1CCCC2 [TCS-JNK-5a] | -61.6 | 0.417
45 | CCc1c(O)cc(O)c(C(=O)c2ccc(OCCN3CCOCC3)c(OC)c2)c1CC(=O)N(CCOC)CCOC [KW-2478] | -53.2 | 0.833
46 | CC[P](CC)(CC)=[Au][S][C@@H]1O[C@H](COC(C)=O)[C@@H](OC(C)=O)[C@H](OC(C)=O)[C@H]1OC(C)=O [Auranofin] | -100 | 2.63
47 | CCCCc1oc2ccc(N[S+](C)(=O)[O-])cc2c1C(=O)c1ccc(OCCCN(CCCC)CCCC)cc1 [Dronedarone hydrochloride] | -102 | 8.33
48 | CCCCCCCCc1ccc(CCC(N)(CO)CO)cc1 [Fingolimod hydrochloride] | -105 | 20.9
49 | Cc1cccc(CC(=O)N2CCc3c2ccc(-c2cn(C)c4ncnc(N)c24)c3F)n1 | -43.2 | 0.661
50 | CCOC(=N)c1nc2ccc3ncnc(Nc4cc(F)c(F)cc4Cl)c3c2s1 [FX-9847] | -41.6 | 4.68
51 | O=C(NCCCNc1nc(Nc2ccc(N3CCOCC3)cc2)ncc1C1CC1)C1CCC1 | -84.5 | 5.9
52 | C1CCC(C(CC2CCCCN2)C2CCCCC2)CC1 (stereo unspecified) [Perhexiline] | -92.2 | 6.61
53 | CO[C@@H](C(=O)N1Cc2[nH]nc(NC(=O)c3ccc(N4CCN(C)CC4)cc3)c2C1)c1ccccc1 [Danusertib] | -71.4 | 1.66
54 | Nc1nc(F)nc2c1ncn2[C@@H]1O[C@H](CO)[C@@H](O)[C@@H]1O [2-Fluoroadenosine] | -57.1 | 9.34
55 | COC[C@H](NC(=O)c1cnc(C)s1)C(=O)N[C@@H](COC)C(=O)N[C@@H](Cc1ccccc1)C(=O)[C@@]1(C)CO1 [Oprozomib] | -88.1 | 0.0742
56 | CN(C)CCCN\C1=C\2C(=O)N(C)C(=O)\N=C2N(C)C3=C1C=CC=C3 | -67.5 | 5.25
57 | Nc1nc(Cl)nc2c1ncn2[C@H]1C[C@H](O)[C@@H](CO)O1 [Cladribine] | -55.8 | 0.295
58 | CC(C)[C@@H](N(CCCN)C(=O)C1=CC=C(C)C=C1)C/2=N/C3=CC(=CC=C3C(=O)N2CC4=CC=CC=C4)Cl [Ispinesib] | -94.4 | 0.0295
